From patent publication US10457709B2, “Antimicrobial peptides, their variants and uses” (priority 2015, dated 2019)
Converted amounts (≈) assume the structure as drawn. Ends that are not written are not given here.

Assays:
[1] = tested on: Escherichia coli (ATCC 25922); assay: microbe, parasite or virus in culture; format: cell-based
Protocol: (§1) Minimum inhibition concentrations (MICs) were determined against Escherichia coli (ATCC 25922), Staphylococcus aureus (ATCC 25923), Klebsiella pneumoniae (ATCC 10031) and Pseudomonas aeruginosa (ATCC 27853). Also clinical strains of E. coli, K. pneumoniae, E. cloacae, P. aeruginosa, Serratia marcescens, Proteus mirabilis, S. pneumoniae, Acinetobacter baumannii, A. johnsonii and S. aureus were used for MICs assays. Additionally, clinical strains of yeast including Candida albicans, C. glabrata, C. parapsilosis and C. quillermondiae were used. The susceptibility of these microorganisms to Chain peptides were determined using micro broth dilution assay. Colonies of the respective microorganism from Muller Hinton (MH) agar plates incubated overnight were suspended in MH broth media and final concentration of microorganism was adjusted to 5.0×10^5 cfu/ml. An aliquot of 10 μl of each Chain peptide, or gentamicin, tetracycline as reference antibiotics were added in differing concentrations along with 90 μl of bacterial suspension to 96 well polypropylene plates and incubated at 37° C. for 20 to 24 hours. Concentrations of Chain peptides and reference antibiotics ranged from 0.125 to 128 μg/ml and the MICs were recorded as the lowest concentration with no visual growth of bacteria. Similarly, antifungal MICs were tested in Potato dextrose broth.

[2] = tested on: Pseudomonas aeruginosa (ATCC 27853); assay: microbe, parasite or virus in culture; format: cell-based
Protocol: as §1

[3] = tested on: Klebsiella pneumoniae (ATCC 10031); assay: microbe, parasite or virus in culture; format: cell-based
Protocol: as §1

[4] = tested on: Staphylococcus aureus (ATCC 25923); assay: microbe, parasite or virus in culture; format: cell-based
Protocol: as §1

[5] = tested on: C. glabrata clinical strains; assay: MIC, clinical yeast strains; format: cell-based, Candida glabrata; design: unit: µg/ml
Protocol: as §1
(§2) Clinical strains of yeasts including Candida albicans, C. glabrata, C. parapsilosis and C. quillermondiae were also tested with the 12 Chain peptides. The minimum inhibitory concentration (MICs) varied between these peptides and are presented in Tables 4a, 4b, 4c and 5a, 5b, 5c. Peptides Chain 105, 201 and 308 are broad spectrum antimicrobials with MICs between 0.5-32 μg/ml against all the bacteria and yeasts tested, except Serratia marcescens and Proteus mirabilis, against which the MICs were between 64-128 μg/ml. Peptide Chain 306 has narrow spectrum activity against E. coli at 1 μg/ml and for the rest of the bacterial strains at >32 μg/ml (FIG. 10c).

[6] = tested on: Candida albicans clinical strains; assay: MIC, clinical yeast strains; format: cell-based; design: unit: μg/ml
Protocol: as §1, §2

[7] = tested on: C. quillermondiae clinical strains; assay: MIC, clinical yeast strains; format: cell-based, Candida quillermondiae; design: unit: μg/ml; details: C. quillermondiae clinical yeast strain 1
Protocol: as §1, §2

[8] = tested on: C. parapsilosis clinical strains; assay: MIC, clinical yeast strains; format: cell-based, Candida parapsilosis; design: unit: µg/ml
Protocol: as §1, §2

Molecule | Minimum inhibitory concentration, Escherichia coli (ATCC 25922) [1] [µg/mL] | Minimum inhibitory concentration, Pseudomonas aeruginosa (ATCC 27853) [2] [µg/mL] | Minimum inhibitory concentration, Klebsiella pneumoniae (ATCC 10031) [3] [µg/mL] | Minimum inhibitory concentration, Staphylococcus aureus (ATCC 25923) [4] [µg/mL] | other results
WIRLHWKRLRK [Chain106] | >128 | 64 | >128 | >128 | –
WRKWFWLFKKR [Chain309] | 32 | 8 | 64 | 32 | –
IIKRFRLFKKL [Chain301] | 64 | 64 | >128 | >128 | –
ILKRWWLFKKL [Chain302] | >128 | 16 | >128 | 128 | –
RKIVKKRTFKR [Chain202] | >128 | 1 | >128 | >128 | –
WWRLHAKKKLW [Chain107] | 64 | >128 | >128 | >128 | –
RLKRFRLFRKRK [Chain313] | 32 | 64 | >128 | >128 | –
WRIVRWRKLKR [Chain209] | 64 | >128 | >128 | >128 | –
IWKRFRLFKKR [Chain303] | 64 | >128 | >128 | >128 | –
DCWSAMIRLHAKYNQV [Chain100] | >128 | >128 | >128 | >128 | –
CN(C)[C@@H]1C(O)=C(C(N)=O)C(=O)[C@@]2(O)C(O)=C3C(=O)c4c(O)cccc4[C@@](C)(O)[C@H]3C[C@@H]12 [Tetracycline, reference compound] | – | – | – | – | MIC ([1]; Escherichia coli, ATCC25922, read-out: Minimum inhibitory concentration, Escherichia coli (ATCC 25922)): 8 µg/mL (≈ 18 µM); MIC ([2]; Pseudomonas aeruginosa, ATCC27853, read-out: Minimum inhibitory concentration, Pseudomonas aeruginosa (ATCC 27853)): 32 µg/mL (≈ 72 µM); MIC ([3]; Klebsiella pneumoniae, ATCC10031, read-out: Minimum inhibitory concentration, Klebsiella pneumoniae (ATCC 10031)): 2 µg/mL (≈ 4.5 µM); MIC ([4]; Staphylococcus aureus, ATCC25923, read-out: Minimum inhibitory concentration, Staphylococcus aureus (ATCC 25923)): 2 µg/mL (≈ 4.5 µM)
C[C@@H]1[C@H](O)[C@@H](C)/C=C/C=C/C=C/C=C/C=C/C=C/C=C/[C@H](O[C@@H]2O[C@H](C)[C@@H](O)[C@H](N)[C@@H]2O)C[C@@H]2O[C@](O)(C[C@@H](O)C[C@@H](O)[C@H](O)CC[C@@H](O)C[C@@H](O)CC(=O)O[C@H]1C)C[C@H](O)[C@H]2C(=O)O [Amphotericin B] | – | – | – | – | Minimum inhibitory concentration ([5]; C. glabrata clinical yeast strain 1): 4; Minimum inhibitory concentration ([5]; C. glabrata clinical yeast strain 2): 4; Minimum inhibitory concentration ([5]; C. glabrata clinical yeast strain 3): 2; Minimum inhibitory concentration ([5]; C. glabrata clinical yeast strain 4): 4; Minimum inhibitory concentration ([6]; Candida albicans clinical yeast strain 1): 2; Minimum inhibitory concentration ([6]; Candida albicans clinical yeast strain 2): 0.5; Minimum inhibitory concentration ([6]; Candida albicans clinical yeast strain 3): 2; Minimum inhibitory concentration ([6]; Candida albicans clinical yeast strain 4): 2; Minimum inhibitory concentration ([6]; Candida albicans clinical yeast strain 5): 2; Minimum inhibitory concentration [7]: 2; Minimum inhibitory concentration ([8]; C. parapsilosis clinical yeast strain 1): 2; Minimum inhibitory concentration ([8]; C. parapsilosis clinical yeast strain 2): 2; Minimum inhibitory concentration ([8]; C. parapsilosis clinical yeast strain 3): 2; Minimum inhibitory concentration ([8]; C. parapsilosis clinical yeast strain 4): 2
KLKKFKLFKKR [Chain312] | >128 | >128 | >128 | >128 | –
KRIVRWRKLKRK [Chain207] | >128 | >128 | >128 | >128 | –
KRIVRWRTRKR [Chain205] | 64 | >128 | >128 | >128 | –
KKRLHRKRLRK [Chain102] | >128 | >128 | >128 | >128 | –
KLRLHAKRLRK [Chain103] | >128 | >128 | >128 | >128 | –
RLKWFWLRKLK [Chain305] | 128 | 16 | 64 | 64 | –
RRIVKLRWFKR [Chain203] | 32 | >128 | >128 | >128 | –
IWKRFRLFKKW [Chain304] | 16 | 8 | 64 | 32 | –
WRILRWRKLKR [Chain208] | 32 | 32 | >128 | >128 | –
WRIVQWRKLKR [Chain210] | >128 | >128 | >128 | >128 | –
KLKWFWLFKKR [Chain311] | 16 | 8 | 32 | 32 | –
KIRLHRKRLRK [Chain101] | >128 | >128 | >128 | >128 | –
KRIVRWRWRKR [Chain206] | 16 | >128 | >128 | >128 | –
YDKGFGLFKKM [Chain300] | >128 | >128 | >128 | >128 | –
WWRLHAKRKLW [Chain108] | >128 | >128 | >128 | >128 | –
